One assay concerns the target T1, MsPnbA (Mycolicibacterium smegmatis, UniProt A0R6D0).
T1 construct: gene nfnB; C-terminal poly-His tag; E. coli BL21(DE3), pET-28a; Ni-NTA, FMN-reconstituted
Description: NADH oxidation, initial rates in microtiter plate; Michaelis-Menten fit. To be noted: NADH co-substrate, 25 °C; only normalised kcat/KM used in text. The assay is classed as biochemical.

For the next assay, the target named is T2, StNfsB (Salmonella enterica, UniProt P15888).
T2 construct: gene nfsB; full length, 217 residues; untagged purification (ammonium sulfate, DEAE, Sephacryl); E. coli BL21(DE3), pET-28a; FMN-reconstituted; homodimer
T2 sequence (P15888 1-217): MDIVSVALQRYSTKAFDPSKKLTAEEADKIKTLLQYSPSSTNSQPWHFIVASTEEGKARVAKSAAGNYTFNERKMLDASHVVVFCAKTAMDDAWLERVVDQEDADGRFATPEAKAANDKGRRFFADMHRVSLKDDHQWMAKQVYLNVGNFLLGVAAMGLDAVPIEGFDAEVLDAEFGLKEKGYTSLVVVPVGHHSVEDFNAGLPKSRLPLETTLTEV
Description: NADH oxidation at […] nm; Michaelis-Menten fit. To be noted: 0.5 mM NADH, 25 °C. The class given is biochemical.

T1 sequence (A0R6D0 whole entry): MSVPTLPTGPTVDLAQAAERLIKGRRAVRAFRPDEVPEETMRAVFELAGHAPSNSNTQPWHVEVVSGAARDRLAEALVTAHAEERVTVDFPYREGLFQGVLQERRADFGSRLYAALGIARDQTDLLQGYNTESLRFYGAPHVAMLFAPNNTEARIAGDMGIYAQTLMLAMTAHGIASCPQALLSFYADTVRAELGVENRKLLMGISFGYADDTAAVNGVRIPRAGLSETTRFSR

With `O=[N+]([O-])c1ccccc1` [compound 1, nitrobenzene], the “NADH oxidation, initial rates in microtiter plate; Michaelis-Menten fit” value on MsPnbA is on record as “dividing by the rate measured for the unsubstituted parent compound: nitrobenzene”. Moreover, the “NADH oxidation at 370 nm; Michaelis-Menten fit” value at StNfsB is “dividing by the rate measured for the unsubstituted parent compound: nitrobenzene”.

For the origin of these results see article PMC6017928, “Informing Efforts to Develop Nitroreductase for Amine Production” (Molecules : A Journal of Synthetic Chemistry and Natural …, 2018).
